This is an account of results in patent US9650395B2, “Antibacterial compounds and methods for use” (PTC Therapeutics, Inc., priority 2011, dated 2017).

The MIC is the smallest concentration in the dilution series that meets the test's criterion for growth inhibition.

The structures appear in SMILES notation. In brackets after ≈: the same amount, converted by molar mass.

The test system of assay [1] is Pseudomonas aeruginosa (P. aeruginosa) 27853. In words: Antibacterial activity, MIC, P. aeruginosa 27853. It counts as cell-based. The following applies: Pseudomonas aeruginosa, P. aeruginosa 27853; read-out: MIC 27853. An excerpt:
(§1) The antibacterial activity from a microbroth dilution method may be presented as the minimum inhibitory concentration (MIC in […]). The MIC value is the lowest concentration of a drug which prevents macroscopically visible bacterial growth under test conditions.
Antibacterial activity of test compounds against the Gram-negative bacterium Pseudomonas aeruginosa (P. aeruginosa) 27853 is shown in Table 5.

The subject of assay [2] is super sensitive Gram-negative Escherichia coli (E. coli) BAS849. In words: Antibacterial activity, microbroth dilution MIC, E. coli BAS849. The format is cell-based. The following applies: Escherichia coli; E. coli BAS849, microbroth dilution; read-out: MIC, BAS849. Background: Broth dilution looks for growth in wells or tubes with falling amounts of substance.
Assay [3] deals with Klebsiella pneumoniae (K. pneumoniae) 35657. In words: Antibacterial activity, MIC, K. pneumoniae 35657. The following applies: Klebsiella pneumoniae. The format is cell-based.
The subject of assay [4] is control Gram-negative E. coli 25922 strain. In words: Antibacterial activity, microbroth dilution MIC, E. coli 25922. The format is cell-based, Escherichia coli. The following applies: Escherichia coli; E. coli 25922, microbroth dilution; read-out: MIC, 25922.
In assay [5] the test system is Gram-positive Staphylococcus aureus (S. aureus) 29213. In words: Antibacterial activity, microbroth dilution MIC, S. aureus 29213. It counts as cell-based. The following applies: Staphylococcus aureus; S. aureus 29213, microbroth dilution; read-out: MIC, 29213.
In assay [6] the test system is Acinetobacter baumannii (A. baumannii) BAA747. In words: Antibacterial activity, MIC, A. baumannii BAA747. It counts as cell-based. The following applies: Acinetobacter baumannii; A. baumannii BAA747; read-out: MIC BAA747.
Assay [7] concerns resistant A. baumannii MXX2240 (MDR clinical isolate). In words: Antibacterial activity, MIC, resistant A. baumannii MXX2240. It counts as cell-based, Acinetobacter baumannii. The following applies: Acinetobacter baumannii, resistant A. baumannii MMX2240, MDR clinical isolate; read-out: MIC MMX2240.
Assay [8] concerns quinolone resistant E. coli LZ3111. In words: Antibacterial activity, MIC, quinolone resistant E. coli LZ3111. The format is cell-based, Escherichia coli. The following applies: Escherichia coli, read-out: MIC, LZ3111.
Excerpt: as §1
Mutations in these regions are known to confer a high level resistance to the quinolone class of antibiotics.

In assay [9] the test system is resistant K. pneumoniae MXX1232 (MDR clinical isolate). In words: Antibacterial activity, MIC, resistant K. pneumoniae MXX1232. The format is cell-based, Klebsiella pneumoniae. The following applies: Klebsiella pneumoniae; resistant K. pneumoniae MMX1232, MDR clinical isolate; read-out: MIC MMX1232.

`COCc1c(-c2ccc(N(C)C)cc2)[nH]c(=O)c(C(=O)O)c1O` [Cpd 332, 6-(4-(dimethylamino)phenyl)-4-hydroxy-5-(methoxymethyl)-2-oxo-1,2-dihydropyridine-3-carboxylic acid]: the MIC in [1], in assay [2], in assay [3], in assay [4], in assay [5] and in [6] was 12.5 to 150 µg/mL (≈ 39.3 to 471 µM) each time. In addition, the MIC in [7], in assay [8] and in [9] was 12.5 to 150 µg/mL (≈ 39.3 to 471 µM) throughout.

As for `CCc1c(-c2ccc(N3CCC4(CCNC4)C3)cc2)[nH]c(=O)c(C(=O)O)c1O` (stereo not drawn) [Cpd 321, 6-(4-(2,7-diazaspiro[4.4]nonan-2-yl)phenyl)-5-ethyl-4-hydroxy-2-oxo-1,2-dihydropyridine-3-carboxylic acid], the MIC in assay [1] lay within 12.5 to 150 µg/mL (≈ 32.6 to 391 µM); in assay [2], 1 to 3.5 µg/mL (≈ 2.61 to 9.13 µM); in [3] it was 3.5 to 12.5 µg/mL (≈ 9.13 to 32.6 µM); in assay [4] it was 12.5 to 150 µg/mL (≈ 32.6 to 391 µM); in assay [5], 12.5 to 150 µg/mL (≈ 32.6 to 391 µM); in [6] it was 12.5 to 150 µg/mL (≈ 32.6 to 391 µM). The MIC in assay [7], in assay [8] and in assay [9] was 12.5 to 150 µg/mL (≈ 32.6 to 391 µM) throughout.

In the case of `Cc1c(-c2ccc(N3C[C@@H]4[C@@H](N)[C@@H]4C3)cn2)[nH]c(=O)c(C(=O)O)c1O` [Cpd 317, 6-(5-((1R,5S,6s)-6-amino-3-azabicyclo[3.1.0]hexan-3-yl)pyridin-2-yl)-4-hydroxy-5-methyl-2-oxo-1,2-dihydropyridine-3-carboxylic acid], the minimal inhibitory concentration (MIC) in assay [1] is 12.5 to 150 µg/mL (≈ 36.5 to 438 µM); in assay [2], 3.5 to 12.5 µg/mL (≈ 10.2 to 36.5 µM); in assay [3], 3.5 to 12.5 µg/mL (≈ 10.2 to 36.5 µM); in [4], 3.5 to 12.5 µg/mL (≈ 10.2 to 36.5 µM); in assay [5] it was 12.5 to 150 µg/mL (≈ 36.5 to 438 µM); in assay [6], 12.5 to 150 µg/mL (≈ 36.5 to 438 µM). In addition, the MIC in assay [7], in [8] and in [9] was 12.5 to 150 µg/mL (≈ 36.5 to 438 µM) each time.

`CCc1c(-c2ccc(CCN(C)C)cc2)[nH]c(=O)c(C(=O)O)c1O` [Cpd 343, 6-(4-(2-(dimethylamino)ethyl)phenyl)-5-ethyl-4-hydroxy-2-oxo-1,2-dihydropyridine-3-carboxylic acid]: the MIC fell in the range of 12.5 to 150 µg/mL (≈ 37.8 to 454 µM) in assay [1]; 3.5 to 12.5 µg/mL (≈ 10.6 to 37.8 µM) in assay [2]; 12.5 to 150 µg/mL (≈ 37.8 to 454 µM) in assay [3]; 12.5 to 150 µg/mL (≈ 37.8 to 454 µM) in [4]; 12.5 to 150 µg/mL (≈ 37.8 to 454 µM) in assay [5]; 12.5 to 150 µg/mL (≈ 37.8 to 454 µM) in [6]. For the same compound, the minimal inhibitory concentration (MIC) in assay [7], in assay [8] and in assay [9] was 12.5 to 150 µg/mL (≈ 37.8 to 454 µM) each time.

Turning to `CCc1c(-c2ccc(N3CCCC3)nc2)[nH]c(=O)c(C(=O)O)c1O` [Cpd 336, 5-ethyl-4-hydroxy-2-oxo-6-(6-(pyrrolidin-1-yl)pyridin-3-yl)-1,2-dihydropyridine-3-carboxylic acid], the MIC was in the range of 12.5 to 150 µg/mL (≈ 38 to 455 µM) in [1]; 1 to 3.5 µg/mL (≈ 3.04 to 10.6 µM) in assay [2]; 12.5 to 150 µg/mL (≈ 38 to 455 µM) in [3]; 12.5 to 150 µg/mL (≈ 38 to 455 µM) in [4]; 12.5 to 150 µg/mL (≈ 38 to 455 µM) in [5]; 12.5 to 150 µg/mL (≈ 38 to 455 µM) in assay [6]. For the same compound, the MIC lay within 12.5 to 150 µg/mL (≈ 38 to 455 µM) in assay [7], 3.5 to 12.5 µg/mL (≈ 10.6 to 38 µM) in assay [8] and 12.5 to 150 µg/mL (≈ 38 to 455 µM) in assay [9].

As to `CN(C)c1ccc(-c2[nH]c(=O)c(C(=O)O)c(O)c2CC=O)cc1` [Cpd 327, 6-(4-(dimethylamino)phenyl)-4-hydroxy-2-oxo-5-(2-oxoethyl)-1,2-dihydropyridine-3-carboxylic acid], the MIC in assay [1] lay within 12.5 to 150 µg/mL (≈ 39.5 to 474 µM); in assay [2], 3.5 to 12.5 µg/mL (≈ 11.1 to 39.5 µM); in [3], 12.5 to 150 µg/mL (≈ 39.5 to 474 µM); in assay [4], 12.5 to 150 µg/mL (≈ 39.5 to 474 µM); in assay [5], 12.5 to 150 µg/mL (≈ 39.5 to 474 µM); in assay [6], 12.5 to 150 µg/mL (≈ 39.5 to 474 µM). Further, the MIC in [7], in assay [8] and in assay [9] was 12.5 to 150 µg/mL (≈ 39.5 to 474 µM) each time.

Consider `CCNc1ccc(-c2[nH]c(=O)c(C(=O)O)c(O)c2CC)cc1` [Cpd 325, 5-ethyl-6-(4-(ethylamino)phenyl)-4-hydroxy-2-oxo-1,2-dihydropyridine-3-carboxylic acid], for which the MIC in [1] was 12.5 to 150 µg/mL (≈ 41.3 to 496 µM); in assay [2] it was less than 1 µg/mL; in assay [3], 3.5 to 12.5 µg/mL (≈ 11.6 to 41.3 µM); in assay [4], 3.5 to 12.5 µg/mL (≈ 11.6 to 41.3 µM); in [5], 12.5 to 150 µg/mL (≈ 41.3 to 496 µM); in assay [6], 3.5 to 12.5 µg/mL (≈ 11.6 to 41.3 µM). Further, the minimal inhibitory concentration (MIC) in assay [7], in [8] and in assay [9] was 12.5 to 150 µg/mL (≈ 41.3 to 496 µM) in each case.
